Measured values taken from patent US11931431B2, “PSMA-targeted radiopharmaceutical for diagnosing and treating prostate cancer” (FUTURECHEM CO., LTD, priority 2018, dated 2024).

Key:
[1] = Measurement of lipophilicity (log P), n-octanol/PBS; type: physicochemical; conditions: mean of 3
Method: Each of the [^68Ga]1 compounds (1˜2 mci) synthesized in Example 14 was transferred into a vial, and the solvent was removed, to which 1 mL of n-octanol and 1 mL of PBS were added, and the lid was well closed, followed by mixing with a vortex for 1 minute. After the layers were separated, 0.1 mL was taken from each layer and the radiation dose was measured. The radiation dose was measured by repeating 3 times, and the mean value was obtained.

[2] = test system: PSMA^+ PC-3 PIP tumors; assay: MicroPET/CT imaging of mice transplanted with prostate cancer cell lines; type: in vivo, nude mouse
Method: A tumor model was prepared by subcutaneously injecting PSMA^+ PC-3 PIP cells (a human prostate cancer cell line) to the right side of the nude mouse hind leg. Each of the ^68Ga-labeled compounds [^68Ga]1e, [^68Ga]1g, [^68Ga]1h and [^68Ga]1k was intravenously injected with 5.5 to 6.5 MBq (148-175 μCi/200 μL), and PET/CT images were obtained using small animal INVEON PET/CT (Siemens medical solutions, Knoxville, USA) for 60 minutes. After 150 minutes, 270 minutes, and 390 minutes, PET/CT images were also obtained for 30 minutes. The obtained PET/CT image results were quantitatively analyzed using Inveon™ Research Workplace (IRW).
FIGS. 1, 2, 3, and 4 are graphs showing the quantitative analysis results of MicorPET/CT images for [^68Ga]1e, [^68Ga]1g, [^68Ga]1h, and [^68Ga]1k in % injected dose (ID)/g, and summarized in Tables 3, 4, 5, and 6, respectively.

logP [1]: −1.89
intake of mouse organ: Bladder ([2]; 10 min after injection): 2.12 ± 0.39 % ID/g
intake of mouse organ: Heart ([2]; 10 min after injection): 24.69 ± 0.20 % ID/g
intake of mouse organ: Kidney ([2]; 10 min after injection): 13.26 ± 2.36 % ID/g
intake of mouse organ: Liver ([2]; 10 min after injection): 14.96 ± 0.03 % ID/g
intake of mouse organ: Muscle ([2]; 10 min after injection): 2.24 ± 0.15 % ID/g
intake of mouse organ: Tumor (PIP) ([2]; 10 min after injection): 1.94 ± 0.35 % ID/g
intake of mouse organ: Bladder ([2]; 20 min after injection): 2.91 ± 0.69 % ID/g
intake of mouse organ: Heart ([2]; 20 min after injection): 21.30 ± 0.11 % ID/g
intake of mouse organ: Kidney ([2]; 20 min after injection): 12.56 ± 0.86 % ID/g
intake of mouse organ: Liver ([2]; 20 min after injection): 12.71 ± 0.03 % ID/g
intake of mouse organ: Muscle ([2]; 20 min after injection): 2.97 ± 0.35 % ID/g
intake of mouse organ: Tumor (PIP) ([2]; 20 min after injection): 3.74 ± 0.97 % ID/g
intake of mouse organ: Bladder ([2]; 30 min after injection): 3.14 ± 0.51 % ID/g
intake of mouse organ: Heart ([2]; 30 min after injection): 17.38 ± 0.04 % ID/g
intake of mouse organ: Kidney ([2]; 30 min after injection): 12.61 ± 0.71 % ID/g
intake of mouse organ: Liver ([2]; 30 min after injection): 10.37 ± 0.12 % ID/g
intake of mouse organ: Muscle ([2]; 30 min after injection): 2.98 ± 0.34 % ID/g
intake of mouse organ: Tumor (PIP) ([2]; 30 min after injection): 5.00 ± 1.41 % ID/g
intake of mouse organ: Bladder ([2]; 40 min after injection): 4.52 ± 0.97 % ID/g
intake of mouse organ: Heart ([2]; 40 min after injection): 15.25 ± 0.15 % ID/g
intake of mouse organ: Kidney ([2]; 40 min after injection): 13.51 ± 0.46 % ID/g
intake of mouse organ: Liver ([2]; 40 min after injection): 8.86 ± 0.35 % ID/g
intake of mouse organ: Muscle ([2]; 40 min after injection): 3.28 ± 0.23 % ID/g
intake of mouse organ: Tumor (PIP) ([2]; 40 min after injection): 6.22 ± 1.75 % ID/g
intake of mouse organ: Bladder ([2]; 50 min after injection): 8.26 ± 4.41 % ID/g
intake of mouse organ: Heart ([2]; 50 min after injection): 13.52 ± 0.55 % ID/g
intake of mouse organ: Kidney ([2]; 50 min after injection): 13.44 ± 0.71 % ID/g
intake of mouse organ: Liver ([2]; 50 min after injection): 7.83 ± 0.45 % ID/g
intake of mouse organ: Muscle ([2]; 50 min after injection): 3.25 ± 0.36 % ID/g
intake of mouse organ: Tumor (PIP) ([2]; 50 min after injection): 7.12 ± 2.07 % ID/g
intake of mouse organ: Bladder ([2]; 60 min after injection): 12.62 ± 5.31 % ID/g
intake of mouse organ: Heart ([2]; 60 min after injection): 12.14 ± 0.91 % ID/g
intake of mouse organ: Kidney ([2]; 60 min after injection): 13.60 ± 1.72 % ID/g
intake of mouse organ: Liver ([2]; 60 min after injection): 7.19 ± 0.49 % ID/g
intake of mouse organ: Muscle ([2]; 60 min after injection): 3.14 ± 0.20 % ID/g
intake of mouse organ: Tumor (PIP) ([2]; 60 min after injection): 7.90 ± 2.46 % ID/g
intake of mouse organ: Bladder ([2]; 150 min after injection): 19.45 ± 12.23 % ID/g
intake of mouse organ: Heart ([2]; 150 min after injection): 5.55 ± 2.19 % ID/g
intake of mouse organ: Kidney ([2]; 150 min after injection): 6.40 ± 1.41 % ID/g
intake of mouse organ: Liver ([2]; 150 min after injection): 2.80 ± 0.99 % ID/g
intake of mouse organ: Muscle ([2]; 150 min after injection): 1.70 ± 0.57 % ID/g
intake of mouse organ: Tumor (PIP) ([2]; 150 min after injection): 9.90 ± 4.53 % ID/g
intake of mouse organ: Bladder ([2]; 270 min after injection): 15.90 ± 4.53 % ID/g
intake of mouse organ: Heart ([2]; 270 min after injection): 5.75 ± 0.21 % ID/g
intake of mouse organ: Kidney ([2]; 270 min after injection): 7.45 ± 1.63 % ID/g
intake of mouse organ: Liver ([2]; 270 min after injection): 3.00 ± 0.28 % ID/g
intake of mouse organ: Muscle ([2]; 270 min after injection): 1.70 ± 0.14 % ID/g
intake of mouse organ: Tumor (PIP) ([2]; 270 min after injection): 14.20 ± 0.00 % ID/g
intake of mouse organ: Bladder ([2]; 390 min after injection): 22.80 ± 9.90 % ID/g
intake of mouse organ: Heart ([2]; 390 min after injection): 3.90 ± 0.42 % ID/g
intake of mouse organ: Kidney ([2]; 390 min after injection): 5.85 ± 0.92 % ID/g
intake of mouse organ: Liver ([2]; 390 min after injection): 2.35 ± 0.07 % ID/g
intake of mouse organ: Muscle ([2]; 390 min after injection): 1.30 ± 0.14 % ID/g
intake of mouse organ: Tumor (PIP) ([2]; 390 min after injection): 16.75±0.92 % ID/g
excretion, in words ([2]; MicroPET/CT): rapidly excreted out of the body
Structure (SMILES): O=C(O)CCC(NC(=O)NC(CCCCN(CC(=O)O)C(=O)COCCOCCNC(=O)C(CCCCNC(=O)CCCc1ccc(I)cc1)NC(=O)CN1CCN2CCN3CCN(CC1)CC(=O)[O][68Ga]([O]C(=O)C2)[O]C(=O)C3)C(=O)O)C(=O)O (stereo not shown) [[^68Ga]1h]
residence time in the blood, in words ([2]; MicroPET/CT): residence time in the blood was increased
tumor intake over time, in words ([2]; MicroPET/CT): tumor intake continued to increase after 390 minutes
